Measured values taken from publication PMC9511441, “Semisynthetic teicoplanin derivatives with dual antimicrobial activity against SARS-CoV-2 and multiresistant bacteria” (Scientific Reports, 2022).
In brackets after ≈: the same amount, converted by molar mass. Like-named read-outs stand apart in the source and are kept apart here.

What was measured:
HEL cells = experiment: Cytotoxicity in mock-infected HEL cells (MTS); assay type: cell-based, human; settings: mock-infected HEL cells, MTS, mean of 2–3 tests
[1] = tested on: Klebsiella pneumoniae ST258 clone K 160/09; experiment: MIC against Gram-negative strain; settings: Klebsiella pneumoniae
HCoV-229E = experiment: CPE reduction assay, HCoV-229E in HEL cells; assay type: cell-based
S. aureus ATCC29213 [2] = experiment: Fluorescent competition assay, release of fluorescent teicoplanin; assay type: binding; settings: cells saturated with FL-TEI, Fig. 7 right panel
[3] = tested on: Escherichia coli ATCC 25218; experiment: MIC against Gram-negative strain; settings: ATCC25218
[4] = tested on: Pseudomonas aeruginosa ATCC 27853; experiment: MIC against Gram-negative strain; settings: ATCC27853
S. aureus = experiment: MIC, broth microdilution; assay type: cell-based; settings: Staphylococcus aureus
S.pyogenes = experiment: MIC, broth microdilution; assay type: cell-based; settings: Streptococcus pyogenes
E. faecalis = experiment: MIC, broth microdilution; assay type: cell-based; settings: Enterococcus faecalis
S. haemolyticus = experiment: MIC, broth microdilution; assay type: cell-based; settings: Staphylococcus haemolyticus
Calu-3 cells = experiment: Cytotoxicity in mock-infected Calu-3 cells (XTT); settings: read-out: CC50, Calu-3 cells, three days
[5] = tested on: Acinetobacter baumannii ATCC BAA1605; experiment: MIC against Gram-negative strain; settings: Acinetobacter baumannii, ATCCBAA1605
S. aureus ATCC29213 [6] = experiment: Fluorescent competition assay, release of fluorescent vancomycin; settings: cells saturated with FL-VAN, Fig. 7 left panel
SARS-CoV-2 pseudovirus = experiment: microbe, parasite or virus in culture; assay type: cell-based; settings: cathepsin-dependent endosomal pathway
E. faecium = experiment: microbe, parasite or virus in culture; assay type: cell-based; settings: for MIC: Enterococcus faecium
S. epidermidis = experiment: microbe, parasite or virus in culture; assay type: cell-based; settings: Staphylococcus epidermidis
VeroE6 cells = experiment: Cytotoxicity in mock-infected VeroE6 cells (XTT); assay type: cell-based, African green monkey; settings: mock-infected Vero E6 cells, three days, XTT
[7] = target: T1, human recombinant cathepsin L (Homo sapiens, UniProt P07711); experiment: biochemical; assay type: biochemical
T1 construct: made in house; host or cells: Escherichia coli
T1 sequence (P07711 114-333): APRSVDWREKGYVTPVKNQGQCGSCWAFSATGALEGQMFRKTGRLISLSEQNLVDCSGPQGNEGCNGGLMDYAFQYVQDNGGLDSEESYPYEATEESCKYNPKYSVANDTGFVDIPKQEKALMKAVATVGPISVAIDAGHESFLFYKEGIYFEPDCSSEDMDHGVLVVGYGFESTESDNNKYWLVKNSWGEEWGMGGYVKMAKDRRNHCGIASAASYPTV

CC(=O)N[C@H]1[C@H](O[C@@H]2c3ccc(c(Cl)c3)Oc3cc4cc(c3O)Oc3ccc(cc3Cl)C[C@H]3NC(=O)[C@H](NC(=N)N)c5ccc(O)c(c5)Oc5cc(O)cc(c5)[C@H](NC3=O)C(=O)N[C@H]4C(=O)N[C@H]3C(=O)N[C@@H]2C(=O)N[C@H](C(=O)O)c2cc(O)cc(O)c2-c2cc3ccc2O)O[C@H](CO)[C@@H](O)[C@@H]1O [Compound 6]
CC50 (HEL cells): > 100 µM
MIC [1]: 128 µg/mL (≈ 88.6 µM)
Activity against HCoV-229E CPE (in words) (HCoV-229E): only modest activity
Outcompeting fluorescent teicoplanin from S. aureus (in words) (S. aureus ATCC29213 [2]): the most active competitor
MIC [3]: 128 µg/mL (≈ 88.6 µM)
MIC [4]: 256 µg/mL (≈ 177 µM)
MIC (S. aureus; ATCC 29213 / MSSA, read-out: MIC value, S. aureus ATCC29213, MSSA): 0.25 µg/mL (≈ 0.173 µM)
MIC (S. aureus; MRSA / USA300, read-out: MIC value, S. aureus USA300, CA-MRSA): 0.125 µg/mL (≈ 0.0866 µM)
MIC (S. aureus; MRSA, read-out: Average MIC value, S. aureus CA-MRSA, 1 strain): 0.125 µg/mL (≈ 0.0866 µM)
MIC (S. aureus; MRSA, read-out: Average MIC value, S. aureus MRSA, 7 strains): 0.125 µg/mL (≈ 0.0866 µM)
MIC (S. aureus; MRSA, read-out: MIC value, S. aureus 73OL, MRSA): 0.125 µg/mL (≈ 0.0866 µM)
MIC (S. aureus; MRSA, read-out: MIC value, S. aureus 214OL, MRSA): 0.125 µg/mL (≈ 0.0866 µM)
MIC (S. aureus; MRSA, read-out: MIC value, S. aureus 1041OL, MRSA): 0.125 µg/mL (≈ 0.0866 µM)
MIC (S. aureus; MRSA, read-out: MIC value, S. aureus A6918, MRSA): 0.125 µg/mL (≈ 0.0866 µM)
MIC (S. aureus; MRSA, read-out: MIC value, S. aureus A6919, MRSA): 0.125 µg/mL (≈ 0.0866 µM)
MIC (S. aureus; MRSA, read-out: MIC value, S. aureus Mu50, MRSA): 0.125 µg/mL (≈ 0.0866 µM)
MIC (S. aureus; MRSA, read-out: MIC value, S. aureus N315, MRSA): 0.125 µg/mL (≈ 0.0866 µM)
MIC (S. aureus; MSSA / NEWMAN, read-out: MIC value, S. aureus Newman, MSSA): 0.25 µg/mL (≈ 0.173 µM)
MIC (S. aureus; MSSA, read-out: Average MIC value, S. aureus MSSA, 4 strains): 0.188 µg/mL (≈ 0.13 µM)
MIC (S. aureus; MSSA, read-out: MIC value, S. aureus MSSA476, MSSA): 0.125 µg/mL (≈ 0.0866 µM)
MIC (S. aureus; MSSA, read-out: MIC value, S. aureus SA564, MSSA): 0.125 µg/mL (≈ 0.0866 µM)
MIC (S.pyogenes; read-out: MIC value, S.pyogenes H232): 0.125 µg/mL (≈ 0.0866 µM)
MIC (S.pyogenes; read-out: MIC value, S.pyogenes H550): 0.125 µg/mL (≈ 0.0866 µM)
MIC (S.pyogenes; read-out: MIC value, S.pyogenes H578): 0.125 µg/mL (≈ 0.0866 µM)
MIC (E. faecalis; read-out: Average MIC value, E. faecalis VAN^R,TEI^R/VanA, 1 strain): 0.125 µg/mL (≈ 0.0866 µM)
MIC (E. faecalis; read-out: Average MIC value, E. faecalis VAN^S, TEI^S, 2 strains): 0.125 µg/mL (≈ 0.0866 µM)
MIC (E. faecalis; read-out: MIC value, E.faecalis JH2-2): 0.125 µg/mL (≈ 0.0866 µM)
MIC (E. faecalis; read-out: MIC value, E.faecalis OG1RF): 0.125 µg/mL (≈ 0.0866 µM)
MIC (E. faecalis; read-out: MIC value, E.faecalis V583, VAN,TEI/VanA): 0.125 µg/mL (≈ 0.0866 µM)
MIC (S. haemolyticus; S. haemolyticus mecA, 6 strains, read-out: Average MIC value): 0.27 µg/mL (≈ 0.187 µM)
MIC (S. haemolyticus; S.haemolyticus DALB_R1, mecA, read-out: MIC value): 0.5 µg/mL (≈ 0.346 µM)
MIC (S. haemolyticus; S.haemolyticus DALB_R2, mecA, read-out: MIC value): 0.25 µg/mL (≈ 0.173 µM)
MIC (S. haemolyticus; S.haemolyticus DALB_R3, mecA, read-out: MIC value): 0.25 µg/mL (≈ 0.173 µM)
MIC (S. haemolyticus; S.haemolyticus DALB_R4, mecA, read-out: MIC value): 0.125 µg/mL (≈ 0.0866 µM)
MIC (S. haemolyticus; S.haemolyticus DALB_R5, mecA, read-out: MIC value): 0.25 µg/mL (≈ 0.173 µM)
MIC (S. haemolyticus; S.haemolyticus ORI_R1, mecA, read-out: MIC value): 0.25 µg/mL (≈ 0.173 µM)
CC50 (Calu-3 cells): > 100 µM
MIC [5]: 128 µg/mL (≈ 88.6 µM)
Outcompeting fluorescent vancomycin from S. aureus (in words) (S. aureus ATCC29213 [6]): highly effective at outcompeting fluorescent vancomycin
Inhibition of pseudovirus entry in Vero cells (in words) (SARS-CoV-2 pseudovirus): moderately active
MIC (E. faecium; read-out: Average MIC value, E. faecium VAN^R,TEI^R/VanA, 8 strains): 0.156 µg/mL (≈ 0.108 µM)
MIC (E. faecium; read-out: Average MIC value, E. faecium VAN^S, TEI^S, 1 strain): 0.0625 µg/mL (≈ 0.0433 µM)
MIC (E. faecium; read-out: MIC value, E.faecium E335, VAN,TEI,LNZ/VanA): 0.125 µg/mL (≈ 0.0866 µM)
MIC (E. faecium; read-out: MIC value, E.faecium E355, VAN,TEI,LNZ/VanA): 0.125 µg/mL (≈ 0.0866 µM)
MIC (E. faecium; read-out: MIC value, E.faecium E832, VAN,TEI,LNZ/VanA): 0.125 µg/mL (≈ 0.0866 µM)
MIC (E. faecium; read-out: MIC value, E.faecium E854, VAN,TEI,LNZ/VanA): 0.125 µg/mL (≈ 0.0866 µM)
MIC (E. faecium; read-out: MIC value, E.faecium E859, VAN,TEI,LNZ/VanA): 0.125 µg/mL (≈ 0.0866 µM)
MIC (E. faecium; read-out: MIC value, E.faecium E1114, VAN,TEI,LNZ/VanA): 0.5 µg/mL (≈ 0.346 µM)
MIC (E. faecium; read-out: MIC value, E.faecium E1131, VAN,TEI,LNZ/VanA): 0.0625 µg/mL (≈ 0.0433 µM)
MIC (E. faecium; read-out: MIC value, E.faecium E1132, VAN,TEI,LNZ/VanA): 0.0625 µg/mL (≈ 0.0433 µM)
MIC (E. faecium; read-out: MIC value, E.faecium TX0016): 0.0625 µg/mL (≈ 0.0433 µM)
Activity against E. faecium strains expressing the VanA resistance phenotype (in words) (E. faecium; VanA phenotype): strong activity
MIC (S. epidermidis; read-out: Average MIC value, S. epidermidis mecA, 6 strains): 0.1 µg/mL (≈ 0.0692 µM)
MIC (S. epidermidis; read-out: MIC value, S.epidermidis ORI_R1, mecA): 0.0625 µg/mL (≈ 0.0433 µM)
MIC (S. epidermidis; read-out: MIC value, S.epidermidis ORI_R2, mecA): 0.125 µg/mL (≈ 0.0866 µM)
MIC (S. epidermidis; read-out: MIC value, S.epidermidis ORI_R3, mecA): 0.0625 µg/mL (≈ 0.0433 µM)
MIC (S. epidermidis; read-out: MIC value, S.epidermidis ORI_R4, mecA): 0.0625 µg/mL (≈ 0.0433 µM)
MIC (S. epidermidis; read-out: MIC value, S.epidermidis TEI_R1, mecA): 0.0625 µg/mL (≈ 0.0433 µM)
MIC (S. epidermidis; read-out: MIC value, S.epidermidis TEI_R2, mecA): 0.25 µg/mL (≈ 0.173 µM)
CC50 (VeroE6 cells): > 100 µM
Cathepsin L inhibition (in words) [7]: did not prove to be an inhibitor
IC50 ([7]; read-out: Cathepsin L IC50, pH 5.5, Z-Phe-Arg-AMC substrate): > 500 µM
